From US8710045B2, “Agents for preventing and treating disorders involving modulation of the ryanodine receptors” (The Trustees of Columbia University in the City of New York, priority 2004, dated 2014)
Values joined by “and” are separate entries in the source; they are usually repeats but may differ in a detail not shown here. Identical values can stand only once.

Key:
hERG current = hERG current (Homo sapiens, UniProt Q12809); assay: hERG current, PatchXpress 7000A automatic parallel patch clamp in hERG-transfected HEK 293 cells (Example 6); conditions: for Individual Data (% Inhibition): single cell
hERG current, sequence (Q12809 whole entry): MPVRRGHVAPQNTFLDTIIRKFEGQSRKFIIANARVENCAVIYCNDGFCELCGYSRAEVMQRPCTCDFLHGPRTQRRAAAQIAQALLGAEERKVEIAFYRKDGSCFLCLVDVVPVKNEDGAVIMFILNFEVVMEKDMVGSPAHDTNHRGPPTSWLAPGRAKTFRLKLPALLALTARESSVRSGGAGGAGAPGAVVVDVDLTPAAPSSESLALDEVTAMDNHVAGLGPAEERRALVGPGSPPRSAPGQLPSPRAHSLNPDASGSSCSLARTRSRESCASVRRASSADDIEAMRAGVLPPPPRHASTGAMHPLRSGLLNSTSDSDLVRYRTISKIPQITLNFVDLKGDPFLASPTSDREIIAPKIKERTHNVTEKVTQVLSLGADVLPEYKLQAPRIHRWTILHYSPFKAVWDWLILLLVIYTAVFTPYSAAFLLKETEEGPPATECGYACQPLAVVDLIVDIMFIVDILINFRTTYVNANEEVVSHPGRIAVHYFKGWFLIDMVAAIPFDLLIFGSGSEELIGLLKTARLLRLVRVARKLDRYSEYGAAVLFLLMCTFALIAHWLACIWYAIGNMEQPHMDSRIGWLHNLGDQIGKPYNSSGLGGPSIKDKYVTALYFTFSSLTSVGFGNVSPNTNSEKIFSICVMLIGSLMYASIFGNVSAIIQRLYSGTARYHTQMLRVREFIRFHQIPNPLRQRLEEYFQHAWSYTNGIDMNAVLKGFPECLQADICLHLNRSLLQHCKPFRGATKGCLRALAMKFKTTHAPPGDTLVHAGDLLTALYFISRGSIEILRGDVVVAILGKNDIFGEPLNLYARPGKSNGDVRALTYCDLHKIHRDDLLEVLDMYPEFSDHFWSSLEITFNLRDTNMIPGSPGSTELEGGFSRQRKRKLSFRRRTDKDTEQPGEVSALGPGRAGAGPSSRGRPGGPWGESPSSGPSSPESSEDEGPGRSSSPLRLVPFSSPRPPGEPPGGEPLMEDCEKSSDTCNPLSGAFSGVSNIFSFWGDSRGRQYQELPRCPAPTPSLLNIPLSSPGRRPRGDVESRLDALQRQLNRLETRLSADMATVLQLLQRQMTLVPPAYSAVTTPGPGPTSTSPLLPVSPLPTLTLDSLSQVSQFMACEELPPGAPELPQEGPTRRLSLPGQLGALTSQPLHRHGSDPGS
Method: HEK293 cells were transfected with a plasmid containing the hERG cDNA and a neomycin resistance gene. Stable transfectants were selected by culturing the cells in the presence of G418. The selection pressure was maintained by continued culture in the presence of G418. […] Cells for use in electrophysiology were cultured in 35 mm dishes.
Onset and steady state block of hERG current was measured using a pulse pattern with fixed amplitudes (conditioning prepulse: +20 mV for 2 seconds; test pulse: −50 mV for 2 seconds) repeated at 10 second intervals, from a holding potential of −80 mV. Peak tail current was measured during the 2 second step to −50 mV. A steady state was maintained for at least 30 seconds before applying the test compound or the positive control. Peak tail current was monitored until a new steady state was achieved. Test compound concentrations were applied cumulatively in ascending order without washout between applications.
Data acquisition and analysis was performed using the suite of pCLAMP (Vre. 8.2) programs (Axon Instruments, Union City, Calif.). Steady state was defined by the limiting constant rate of change with time (linear time dependence). The steady state before and after application of the test or control compounds was used to calculate the percentage of current inhibited at each concentration. […] Nonlinear squares fits were solved with the Solver add-in for Excel 2000 (Microsoft, Redmond, Wash.).
Multiple compounds of the invention were tested for their effects on hERG currents. The compounds tested were: ARM036-Na, ARM047, ARM048, ARM050, ARM057, ARM064, ARM074, ARM075, ARM076, ARM077, ARM101, ARM102, ARM103, ARM104, ARM106, ARM107 and ARM26. […] Electrophysiological recordings were made using the PatchXpress 7000 A (Molecular Devices) automatic parallel patch clamp system. […] The duration of exposure to each test concentration was 5 minutes.

PKA-phosphorylated RyR2 = biological target: T1, PKA-phosphorylated RyR2 (Homo sapiens, UniProt Q92736); assay: FKBP12.6 rebinding assay: FKBP12.6 binding to PKA-phosphorylated RyR2 in cardiac SR; conditions: compound 0.5-1000 nM; Michaelis-Menten curve fitting
T1 construct: from tissue
Method: Samples are centrifuged at 95,000 g for 10 min and the pellets are washed three times in 0.2 ml imidazole buffer. The final pellets are pooled and resuspended in imidazole buffer (final concentration≈10 μg/μl). […] Samples then are centrifuged at 100,000 g for 10 minutes and pellets washed 3 times with imidizol buffer. […] Immunoblots are developed using an anti-FKBP antibody (1:3,000 dilution). […] The intracellular solution contains (in mM): CsCl, 60; CaCl2, 1; EGTA, 11; MgCl2, 1; K2ATP, 5; HEPES, 10; aspartic acid, 50; pH 7.4 (CsOH). Under these conditions, it is expected that the measured current was carried by Ba^2+ primarily through L-type calcium channels which is referred to as ICa,L. Drugs are applied by a local solution changer and reach the cell membrane within 1 s.
The FKBP12.6 rebinding assay described above is used to determine the amount of FKBP12.6 binding to PKA-phosphorylated RyR2 at various concentrations (0.5-1000 nM) of the compounds shown. EC50 values are calculated using Michaelis-Menten curve fitting.
The EC50 values are calculated using Michaelis-Menten curve fitting.

Structure (SMILES) | EC50 (PKA-phosphorylated RyR2) [nM] | further results
COc1ccc2c(c1)CN(C(=O)C(=O)[O-])CCS2.[Na+] [ARM036-Na] | – | Mean % hERG Inhibition (hERG current; 0.01 μM): 0.2%; Individual Data (% Inhibition) (hERG current; 0.01 μM): 0.0% and 0.3%; Mean % hERG Inhibition (hERG current; 0.1 μM): 5.0%; Individual Data (% Inhibition) (hERG current; 0.1 μM): 10.0% and 0.0%; Mean % hERG Inhibition (hERG current; 1 μM): 5.5%; Individual Data (% Inhibition) (hERG current; 1 μM): 2.4% and 8.6%; Mean % hERG Inhibition (hERG current; 10 μM): 6.7%; Individual Data (% Inhibition) (hERG current; 10 μM): 5.1% and 8.2%; hERG current inhibition at the highest concentration tested (hERG current; highest concentration tested (10 μM)): less than 50%
COc1ccc2c(c1)CN(S(=O)(=O)c1ccc(C)cc1)CCS2 [S5] | 208 | –
COc1ccc2c(c1)CN(C(=O)N1CCC(Cc3ccccc3)CC1)CCS2 [S6] | 252 | –
COc1ccc2c(c1)CN(C(=O)c1cccc(C(=O)N3CCSc4ccc(OC)cc4C3)n1)CCS2 [S22] | 355 | –
COc1ccc2c(c1)CN(C(=O)CCN1CCC(Cc3ccccc3)CC1)CCS2(=O)=O [S23] | 268 | –
COc1ccc2c(c1)C(=O)NCCS2 [S25] | 40 | –
COc1ccc2c(c1)CN(C(=O)c1ccc(N=[N+]=[N-])cc1O)CCS2 [S40] | 100 | –
COc1ccc2c(c1)CN(C(=O)C(=O)NCCSSCCNC(=O)c1ccc(N=[N+]=[N-])cc1[N+](=O)[O-])CCS2 [S43] | 80 | –
COc1ccc2c(c1)CN(C(=O)C(=O)NCCSSCCNC(=O)C(=O)N1CCSc3ccc(OC)cc3C1)CCS2 [S44] | 121 | –
COc1ccc2c(c1)CN(C(N)=O)CCS2 [S46] | 150 | –

Continued, in another order:

EC50 (PKA-phosphorylated RyR2) [nM] | Structure (SMILES) | further results
150 | COc1ccc2c(c1)CN(S(=O)(=O)CCN1CCC(Cc3ccccc3)CC1)CCS2 [S1] | –
211 | CCCCN(CCCC)CCS(=O)(=O)N1CCSc2ccc(OC)cc2C1 [S2] | –
102 | COc1ccc2c(c1)CN(S(C)(=O)=O)CCS2 [S4] | –
55 | COc1ccc2c(c1)CN(C(=O)CI)CCS2 [S7] | –
205 | COc1ccc2c(c1)CN(C(=O)c1ccccc1)CCS2 [S9] | –
181 | COc1ccc2c(c1)CN(C(=O)Nc1ccccc1)CCS2 [S11] | –
197 | COc1ccc2c(c1)CN(C(=S)Nc1ccccc1)CCS2 [S12] | –
265 | COc1ccc2c(c1)CN(C(=O)CCC(=O)N1CCSc3ccc(OC)cc3C1)CCS2 [S19] | –
~50 | C=CC(=O)N1CCSc2ccc(OC)cc2C1 [S27] | –
44 | COc1ccc2c(c1)CN(C(=O)CC(=O)O)CCS2 [S38] | –
80 | COc1ccc2c(c1)CN(C(=O)C(=O)NCCSSCCNC(=O)c1ccc(N=[N+]=[N-])cc1O)CCS2 [S45] | –
